Results on 19 compounds are retold here after patent publication US10179125B2, “Substituted pyridines as bromodomain inhibitors” (Zenith Epigenetics Ltd., priority 2014, dated 2019).

Experiment [1] concerns the target T1, Brd4 bromodomain 1 (BRD4(1)) (Homo sapiens, UniProt O60885).
T1 construct: made in house; host or cells: E. coli BL21(DE3)
Put plainly: Inhibition of tetra-acetylated histone H4 binding to BET bromodomain (HTRF/FRET). The note with it: His-tagged bromodomain 200 nM, biotinylated tetra-acetylated histone H4 peptide, 2 h room temperature. The method, then: Proteins were cloned and overexpressed with a N-terminal 6×His tag, then purified by nickel affinity followed by size exclusion chromatography. Briefly, E. coli BL21(DE3) cells were transformed with a recombinant expression vector encoding N-terminally Nickel affinity tagged bromodomains from Brd2, Brd3, Brd4. Cell cultures were incubated at 37° C. with shaking to the appropriate density and induced overnight with IPTG. The supernatant of lysed cells was loaded onto Ni-IDA column for purification, Eluted protein was pooled, concentrated and further purified by size exclusion chromatography. Fractions representing monomeric protein were pooled, concentrated, aliquoted, and frozen at −80° C. for use in subsequent experiments.
Binding of tetra-acetylated histone H4 and BET bromodomains was confirmed by a Homogenous Time Resolved Fluorescence Resonance Energy Transfer (HTRF®) method, N-terminally His-tagged bromodomains (200 nM) and biotinylated tetra-acetylated histone H4 peptide (25-50 nM, Millipore) were incubated in the presence of Europium Cryptate-labeled streptavidin (Cisbio Cat, #610SAKLB) and XL665-labeled monoclonal anti-His antibody (Cisbio Cat.1461HISXLB) in a white 96 well microtiter plate (Greiner). For inhibition assays, serially diluted test compound was added to these reactions in a 0.2% final concentration of DMSO. Duplicate wells were used for each concentration tested. Final buffer concentrations were 30 mM HEPES pH 7.4, 30 mM NaCl, 0.3 mM CHAPS, 20 mM phosphate pH 7.0, 320 mM KF, 0.08% BSA. After a 2 h incubation at room temperature, fluorescence was measured at 665 and 620 nm with a SynergyH4 plate reader (Biotek). The binding inhibitory activity was shown by a decrease in […] relative to 620 nm fluorescence. IC50 values were determined from a dose response curve.
(TR-FRET usually uses a lanthanide donor and a delayed reading to cut background.)

Experiment [2] relates to cMYC. Put plainly: Inhibition of cMYC expression in MV4-11 cells (real-time PCR). In kind it is cell-based, Human. The settings on record: 3 h, cMYC mRNA; for IC50: Homo sapiens, read-out: c-myc activity. The method, then:
MV4-11 cells (CRL-9591) were plated at a density of 2.5×10^4 cells per well in 96 well U-bottom plates and treated with increasing concentrations of test compound or DMSO (0.1%) in IMDM media containing 10% FBS and penicillin/streptomycin, and incubated for 3 h at 37° C. Triplicate wells were used for each concentration. Cells were pelleted by centrifugation and harvested using the mRNA Catcher PLUS kit according to manufacturer's instructions. The eluted mRNA isolated was then used in a one-step quantitative real-time PCR reaction, using components of the RNA UltraSense™ One-Step Kit (Life Technologies) together with Applied Biosystems TaqMan® primer-probes for cMYC and Cyclophilin, Real-time PCR plates were run on a ViiA™7 real time PCR machine (Applied Biosystems), data was analyzed, normalizing the Ct values for cMYC to an internal control, prior to determining the fold expression of each sample, relative to the control.
Background: Quantitative PCR measures a nucleic acid by following its amplification.

Experiment [3] deals with Human AML MV-4-11 cells. The experiment can be described thus: Inhibition of cell proliferation in MV4-11 cells (CellTiter Aqueous One). The settings on record: Homo sapiens, 72 h. In kind it is cell-based. On the procedure: MV4-11 cells (CRL-9591) were plated at a density of 5×10^4 cells per well in 96 well flat bottom plates and treated with increasing concentrations of test compound or DMSO (0.1%) in IMDM media containing 10% FBS and penicillin/streptomycin. Triplicate wells were used for each concentration and a well containing only media was used as a control. Plates were incubated at 37° C., 5% CO2 for 72 h before adding 20 μL of the CellTiter Aqueous One Solution (Promega) to each well and incubated at 37° C., 5% CO2 for an additional 3-4 h. The absorbance was read at 490 nm in a spectrophotometer and the percentage of cell titer relative to DMSO-treated cells was calculated after correcting for background by subtracting the blank well's signal. IC50 values were calculated using the GraphPad Prism software.

The test system of experiment [4] is hIL-6. The experiment can be described thus: Inhibition of hIL-6 mRNA transcription in LPS-stimulated U937 cells. In kind it is cell-based, Human. The note with it: Homo sapiens, U-937, PMA-differentiated U937 cells, 1 h pretreatment, LPS 3 h, read-out: IL-6 activity. The method, then: Human leukemic monocyte lymphoma U937 cells (CRL-1593.2) were plated at a density of 3.2×10^4 cells per well in a 96-well plate in 100 μL RPMI-1640 containing 10% FBS and penicillin/streptomycin, and differentiated into macrophages for 3 days in 60 ng/mL PMA ([…]) at 37° C. in 5% CO2 prior to the addition of compound. The cells were pretreated for 1 h with increasing concentrations of test compound in 0.1% DMSO prior to stimulation with 1 ug/mL lipopolysaccharide from Escherichia coli. Triplicate wells were used for each concentration. The cells were incubated at 37° C., 5% CO2 for 3 h before the cells were harvested. At time of harvest, media was removed and cells were rinsed in 200 μL PBS. Cells were harvested using the mRNA Catcher PLUS kit according to manufacturer's instructions. The eluted mRNA was then used in a one-step quantitative real-time PCR reaction using components of the RNA UltraSense™ One-Step Kit (Life Technologies) together with Applied Biosystems TaqMan® primer-probes for hIL-6 and Cyclophilin. Real-time PCR plates were run on a ViiA™7 real time PCR machine (Applied Biosystems), data was analyzed, normalizing the Ct values for hIL-6 to an internal control, prior to determining the fold expression of each sample, relative to the control.

For `COc1ncc(-c2c(C)noc2C)cc1NCc1ccc(Cl)s1` [Example 8, N-((5-chlorothiophen-2-yl)methyl)-5-(3,5-dimethylisoxazol-4-yl)-2-methoxypyridin-3-amine], the IC50 in experiment [1] is no more than 0.3 µM; in experiment [2], 3 to 30 µM; in experiment [3] it was 3 to 30 µM; in experiment [4], 0.3 to 3 µM.

For the compound `COc1ncc(-c2c(C)noc2C)cc1NC(C)c1ccc(F)cc1` (stereo not shown) [Example 12, 5-(3,5-dimethylisoxazol-4-yl)-N-(1-(4-fluorophenyl)ethyl)-2-methoxypyridin-3-amine], the IC50 in experiment [1] was no more than 0.3 µM; in experiment [2] it was 0.3 to 3 µM; in experiment [3], 0.3 to 3 µM; in experiment [4], 0.3 to 3 µM.

Take `COc1ncc(-c2c(C)noc2C)cc1NCc1ccncc1` [Example 17, 5-(3,5-dimethylisoxazol-4-yl)-2-methoxy-N-(pyridin-4-ylmethyl)pyridin-3-amine]: the IC50 in experiment [1] is 0.3 to 3 µM; in experiment [2], 3 to 30 µM; in experiment [3], 3 to 30 µM; in experiment [4], 0.3 to 3 µM.

As to `COc1ncc(-c2c(C)noc2C)cc1Nc1ccccc1F` [Example 18, 5-(3,5-dimethylisoxazol-4-yl)-N-(2-fluorophenyl)-2-methoxypyridin-3-amine], the IC50 in experiment [1] was no more than 0.3 µM; in experiment [2] it was 3 to 30 µM; in experiment [3], 3 to 30 µM; in experiment [4], 0.3 to 3 µM.

Consider `COc1ncc(-c2c(C)noc2C)cc1Nc1ccc(F)cc1` [Example 19, 5-(3,5-dimethylisoxazol-4-yl)-N-(4-fluorophenyl)-2-methoxypyridin-3-amine], for which the IC50 in experiment [1] was no more than 0.3 µM; in experiment [2] it was 0.3 to 3 µM; in experiment [3], 0.3 to 3 µM; in experiment [4], 0.3 to 3 µM.

`COc1ncc(-c2c(C)noc2C)cc1NCc1cc(C)sc1C` [Example 20, 5-(3,5-dimethylisoxazol-4-yl)-N-((2,5-dimethylthiophen-3-yl)methyl)-2-methoxypyridin-3-amine]: the IC50 in experiment [1] was no more than 0.3 µM; in experiment [2] it was 3 to 30 µM; in experiment [3] it was 3 to 30 µM; in experiment [4] it was 0.3 to 3 µM.

As to `COc1ncc(-c2c(C)noc2C)cc1NCc1ccccn1` [Example 21, 5-(3,5-dimethylisoxazol-4-yl)-2-methoxy-N-(pyridin-2-ylmethyl)pyridin-3-amine], the IC50 was no more than 0.3 µM in experiment [1], 0.3 to 3 µM in experiment [2], 0.3 to 3 µM in experiment [3] and 0.3 to 3 µM in experiment [4].

On to `COc1ncc(-c2c(C)noc2C)cc1NC(C)c1ccccn1` (stereo not shown) [Example 24, 5-(3,5-dimethylisoxazol-4-yl)-2-methoxy-N-(1-(pyridin-2-yl)ethyl)pyridin-3-amine], for which the IC50 is no more than 0.3 µM in experiment [1], 0.3 to 3 µM in experiment [2], 0.3 to 3 µM in experiment [3] and 0.3 to 3 µM in experiment [4].

Take `COc1ncc(-c2c(C)noc2C)cc1NCCc1ccccc1` [Example 26, 5-(3,5-dimethylisoxazol-4-yl)-2-methoxy-N-phenethylpyridin-3-amine]: the IC50 is 0.3 to 3 µM in experiment [1], 3 to 30 µM in experiment [2], 3 to 30 µM in experiment [3] and 3 to 30 µM in experiment [4].

As to `Cc1noc(C)c1-c1cnc(OC(C)C)c(NCc2ccccc2)c1` [Example 27, N-benzyl-5-(3,5-dimethylisoxazol-4-yl)-2-isopropoxypyridin-3-amine], the IC50 in experiment [1] is no more than 0.3 µM; in experiment [2], 3 to 30 µM; in experiment [3], 3 to 30 µM; in experiment [4], 0.3 to 3 µM.

On to `COc1ncc(-c2c(C)noc2C)cc1NCc1ccc(C#N)cc1F` [Example 28, 4-(((5-(3,5-dimethylisoxazol-4-yl)-2-methoxypyridin-3-yl)amino)methyl)-3-fluorobenzonitrile], for which the IC50 in experiment [1] is no more than 0.3 µM; in experiment [2], 3 to 30 µM; in experiment [3] it was 0.3 to 3 µM; in experiment [4] it was 0.3 to 3 µM.

For the compound `COc1ncc(-c2c(C)noc2C)cc1NCc1ccc(C#N)c(F)c1` [Example 29, 4-(((5-(3,5-dimethylisoxazol-4-yl)-2-methoxypyridin-3-yl)amino)methyl)-2-fluorobenzonitrile], the IC50 is no more than 0.3 µM in experiment [1], 0.3 to 3 µM in experiment [2], 0.3 to 3 µM in experiment [3] and no more than 0.3 µM in experiment [4].

Consider `COc1ncc(-c2c(C)noc2C)cc1OCc1ccc(C#N)cc1` [Example 30, 4-(((5-(3,5-dimethylisoxazol-4-yl)-2-methoxypyridin-3-yl)oxy)methyl)benzonitrile], for which the IC50 in experiment [1] is no more than 0.3 µM; in experiment [3], 3 to 30 µM; in experiment [4], 3 to 30 µM. The c-myc activity result in experiment [2] is on record as “Not Active”.

For the compound `COc1ncc(-c2c(C)noc2C)cc1OC(C)c1ccccc1` (stereo not shown) [Example 31, 4-(6-methoxy-5-(1-phenylethoxy)pyridin-3-yl)-3,5-dimethylisoxazole], the IC50 in experiment [1] was no more than 0.3 µM; in experiment [2], 3 to 30 µM; in experiment [3], 0.3 to 3 µM; in experiment [4], 0.3 to 3 µM.

Consider `COc1ncc(-c2c(C)noc2C)cc1OCc1ccc(F)cc1` [Example 32, 4-(5-((4-fluorobenzyl)oxy)-6-methoxypyridin-3-yl)-3,5-dimethylisoxazole], for which the IC50 in experiment [1] was no more than 0.3 µM; in experiment [2], 3 to 30 µM; in experiment [3] it was 3 to 30 µM; in experiment [4], 0.3 to 3 µM.

Regarding `COc1ncc(-c2c(C)noc2C)cc1NCc1cccnc1` [Example 33, 5-(3,5-dimethylisoxazol-4-yl)-2-methoxy-N-(pyridin-3-ylmethyl)pyridin-3-amine], the IC50 in experiment [1] was no more than 0.3 µM; in experiment [2], 0.3 to 3 µM; in experiment [3], 0.3 to 3 µM; in experiment [4] it was 0.3 to 3 µM.

Turning to `COc1ncc(-c2c(C)noc2C)cc1Nc1ccc(C#N)cc1` [Example 35, 4-((5-(3,5-dimethylisoxazol-4-yl)-2-methoxypyridin-3-yl)amino)benzonitrile], the IC50 is no more than 0.3 µM in experiment [1], 3 to 30 µM in experiment [2], 3 to 30 µM in experiment [3] and 0.3 to 3 µM in experiment [4].

Regarding `COc1ncc(-c2c(C)noc2C)cc1Nc1ccc(Cl)cc1` [Example 36, N-(4-chlorophenyl)-5-(3,5-dimethylisoxazol-4-yl)-2-methoxypyridin-3-amine], the IC50 in experiment [1] was no more than 0.3 µM; in experiment [2], 0.3 to 3 µM; in experiment [3], 0.3 to 3 µM; in experiment [4], 3 to 30 µM.

For the compound `COc1ncc(-c2c(C)noc2C)cc1OCc1ccsc1` [Example 37, 4-(6-methoxy-5-(thiophen-3-ylmethoxy)pyridin-3-yl)-3,5-dimethylisoxazole], the IC50 in experiment [1] was no more than 0.3 µM; in experiment [2] it was 0.3 to 3 µM; in experiment [3], 0.3 to 3 µM; in experiment [4], 0.3 to 3 µM.
